Where a name gives a salt, the structure may show the parent alone.
Assays:
[1] = test system: mice having neuropathic pain induced by a spared nerve injury (SNI); settings: for analgesic efficacy at the chronic stage of the neuropathic pain / analgesic efficacy at the earlier stage of the neuropathic pain: agonist alone; for analgesic efficacy upon co-administration of CCG 50014 (RGS4 inhibitor): at 14, 28, or even 56 days after SNI, CCG50014 intrathecally 5 minutes before agonist (FIGS. 3 and 4); for analgesic effect of 1 nmol at 14 days after SNI / analgesic effect at 28 days after SNI / analgesic effect at 56 days after SNI / analgesic effect at 14 days after SNI / higher dose needed at 56 days after SNI for analgesic effect similar to that at 14 days after SNI / neuropathic pain induced by SNI (withdrawal threshold): mouse; for analgesic effect of 1 nmol at 14 days after SNI / analgesic effect at 28 days after SNI / analgesic effect at 56 days after SNI / analgesic effect at 14 days after SNI / higher dose needed at 56 days after SNI for analgesic effect similar to that at 14 days after SNI: intrathecal; for analgesic effect of 1 nmol at 14 days after SNI: alone (FIGS. 5 and 6); for analgesic effect at 28 days after SNI / analgesic effect at 56 days after SNI / analgesic effect at 14 days after SNI / higher dose needed at 56 days after SNI for analgesic effect similar to that at 14 days after SNI: alone; for analgesic effect at 14 days after SNI: as doses increased; for higher dose needed at 56 days after SNI for analgesic effect similar to that at 14 days after SNI: relative to 1 nmol at 14 days; for neuropathic pain induced by SNI (withdrawal threshold): single intrathecal injection, agonist alone (FIGS. 1 and 2)
Description: To prepare neuralgia-induced mouse models, mice having a genetic background of 129S4/SvJae×C57BL/6J were used. According to a modification of the method described in the related art, a spared nerve injury (SNI) of sciatic nerve was induced in the mice.
Briefly, the mice were anesthetized with 3% isoflurane in a mixture of N2O/O2 gas. At the right hindlimb, incision was made at a mid-thigh level, and peripheral branches (sural, common peroneal, and tibial nerves) of the sciatic nerve were exposed. Both tibial and common peroneal nerves were tightly ligated with 8.0 silk thread together, and a 1-2 mm section of the two nerves was removed. The sural nerve was carefully preserved by avoiding any nerve stretch or nerve contact with surgical tools. Muscle and skin were closed in two distinct layers with chromic catgut 6.0 and silk 6.0 suture, respectively. During recovery, animals were housed in clear plastic cages with a thick layer of sawdust bedding.
Clonidine (2-[(2,6-dichlorophenyl)amino-2-imidazoleine hydrochloride, alpha2AR agonist) was purchased from Sigma (St. Louis, Mo., USA). CCG50014 was diluted in 12% dimethyl sulfoxide (DMSO) in saline.
Each drug was administered by intrathecal injection based on the technique developed by Hylden and Wilcox. […] drugs were dissolved in 5 μl of vehicle. Briefly, for mouse intrathecal injections, a 30-gauge needle (length: 0.5 inch) connected to a 50 μl Hamilton syringe was inserted into the subarachnoid space between the lumbar vertebrae L5 and L6. A flick of the mouse tail provided a reliable indicator that the needle had penetrated the dura meter. The syringe was held in position for a few seconds after the injection of 5 μl/mouse.
To evaluate a degree of pain alleviation in each of the neuralgic mice, a degree of pain responses to mechanical stimuli was measured by measuring mechanical threshold based on the method described in the related art. In detail, mechanical withdrawal thresholds were determined for all mice at day 0 prior to neuropathic surgery in order to obtain normal baseline values of withdrawal threshold to mechanical stimuli. For 56 days post-SNI surgery, all experimental animals were behaviorally tested to confirm the development of mechanical allodynia. […] The test was performed using an ascending series of von Frey filaments (North Coast Medical, Morgan Hill, Calif.). Mice were placed in an acrylic cylinder (6.5 cm in diameter and 17 cm in height) on an elevated metal mesh grid and allowed to acclimate for 30 minutes before testing. Each monofilament (0.008 g, 0.02 g, 0.07 g, 0.16 g, 0.4 g, and 0.6 g) was applied 6 times in ascending order to the midplantar region of each hind paw of mouse. The monofilament that produced a paw withdrawal, flinch, or lick in 3 of 6 applications was defined as the 50% paw withdrawal threshold. The behavioral investigator was blinded to the treatment of animals during the experiments.
(§1) Results of each of the experiments above are expressed as means±SEM unless otherwise stated. Data analysis and statistical comparisons were performed using GraphPad Prism version 5.0 (GraphPad Software, San Diego, Calif.). Comparison between two groups was made using the Student's t-test. For multiple comparisons, ANOVA followed by post hoc Tukey test was performed. Differences with P<0.05 were considered significant.

[2] = test system: systolic blood pressure (SBP); settings: mouse
Experimental: To evaluate the induction of low blood pressure, systolic blood pressure (SBP) was measured using a non-invasive computerized tail-cuff system as previously described in the art (PowerLab system, ADI Instrument Pry Ltd., Chain Hills, NSW, Australia). Briefly, animals were acclimated for 30 minutes in a quiet test room prior to obtaining cardiovascular measurements. At the end of the 1 hour period, the SBP was measured. This experiment was repeated 3 times and the mean value for each animal was recorded. […] All cardiovascular measurements were obtained between 1 pm to 3 pm in order to avoid changes due to normal circadian rhythms.
as §1, with “Test results” for “Results of each of the experiments above”

motion performance = settings: mouse
Experimental: To evaluate degradation of motion performance capability as one of side effects caused by the low blood pressure, rotarod test was performed on each of the mice administered with clonidine or the RGS4 inhibitor. […] All mice were tested 24 hours before the actual rotarod test, and mice that were able to remain on the rod for at least 120 seconds were included in the experiment. 30 minutes after clonidine injection, each animal was subsequently tested on the rotarod over 2-minutes period and their performance time on the bar (in seconds) was measured. The test was repeated 3 times and the mean value for each animal was recorded.
as §1, with “Test results” for “Results of each of the experiments above”

[3] = cited from earlier work

Clc1cccc(Cl)c1N=C1NCCN1 [clonidine, 2-[(2,6-dichlorophenyl)amino-2-imidazoleine hydrochloride]
analgesic efficacy upon co-administration of dynasore ([1]; mouse SNI, 56th day after SNI, dynasore intrathecally 5 minutes before clonidine (FIG. 9)): restored
analgesic efficacy at the chronic stage of the neuropathic pain ([1]; mouse SNI): lost the analgesic efficacy
analgesic efficacy at the earlier stage of the neuropathic pain ([1]; mouse SNI): exhibited the analgesic efficacy
analgesic efficacy upon co-administration of CCG 50014 (RGS4 inhibitor) ([1]; mouse SNI): maintained
analgesic effect of 1 nmol at 14 days after SNI [1]: significant analgesic effect
analgesic effect at 28 days after SNI [1]: decreased
analgesic effect at 56 days after SNI [1]: completely disappeared
analgesic effect at 14 days after SNI [1]: potent analgesic effect
higher dose needed at 56 days after SNI for analgesic effect similar to that at 14 days after SNI [1]: 10 fold
neuropathic pain induced by SNI (withdrawal threshold) [1]: alleviated
low blood pressure side effect ([2]; 1 nmol in combination with the RGS4 inhibitor (FIG. 7)): no side effects
blood pressure (SBP) change ([2]; clonidine 10 nmol alone (effective dose), 30 minutes after treatment (FIG. 7)): significant symptoms of low blood pressure
decreased motor performance side effect (motion performance; 1 nmol in combination with the RGS4 inhibitor (FIG. 8)): no side effects
motor performance (rotarod) (motion performance; clonidine 10 nmol alone, 30 minutes after injection (FIG. 8)): rapidly decreased motor performance
side effect ([3]; healthy adult male, concentration gradient from about 150 μg to about 450 μg): no side effect
side effects ([3]; human, 1 μg/kg intravenously with lidocaine): no statistically significant side effects
harmful side effect ([3]; human, 5 μg/kg orally): no harmful side effect

Cc1cccc([C@H](C)c2c[nH]cn2)c1C.Cl [dexmedetomidine, 4-[(1S)-1-(2,3-dimethylphenyl)ethyl]-1H-imidazole hydrochloride]
analgesic efficacy at the chronic stage of the neuropathic pain ([1]; mouse SNI): lost the analgesic efficacy
analgesic efficacy at the earlier stage of the neuropathic pain ([1]; mouse SNI): exhibited the analgesic efficacy
analgesic efficacy upon co-administration of CCG 50014 (RGS4 inhibitor) ([1]; mouse SNI): maintained
analgesic effect of 1 nmol at 14 days after SNI [1]: significant analgesic effect
analgesic effect at 28 days after SNI [1]: decreased
analgesic effect at 56 days after SNI [1]: completely disappeared
analgesic effect at 14 days after SNI [1]: potent analgesic effect
higher dose needed at 56 days after SNI for analgesic effect similar to that at 14 days after SNI [1]: 3 fold
neuropathic pain induced by SNI (withdrawal threshold) [1]: alleviated
